# In PubChem BioAssay AID624404 (Broad Institute, 2012):
# Records with an inconclusive call do not appear.
# System: D54 LucT luciferase reporter counterscreen, luminescence, 24 h
# Assay: reporter signal increase, D54 LucT cells – cell-based, luminescence, cherry pick, counter-screen for N-linked glycosylation inhibitor project, dose response (AID 624404)
row,SMILES,AC35
1,Cc1ccc2nsnc2c1NC(=O)c1ccc([N+](=O)[O-])o1,0.571 µM
2,Cc1ccc(NC(=O)C(Cc2ccccc2)N2C(=O)C3C4CCC(C4)C3C2=O)cc1Cl (stereo not drawn),1.68 µM
3,Cc1ccc(N2CCN(C3=NC(=O)/C(=C\c4cn[nH]c4-c4ccccc4)S3)CC2)cc1,0.793 µM
4,COc1cc2c(cc1OC)C(c1ccccc1)N(C(=O)c1ccco1)CC2 (stereo not drawn),0.375 µM
5,CCN(CC)c1ccc(C(=O)n2cnc3ccccc32)cc1,0.662 µM
6,c1ccc(N=Nc2ccc3cccccc2-3)cc1,0.355 µM
7,O=C(CN1CCC(O)(c2cccc(F)c2)CC1)NCCc1c[nH]c2ccccc12,0.972 µM
8,O=C(Nc1ccncc1)C1CCCN(S(=O)(=O)c2cccc3cccnc23)C1 (stereo not drawn),4.67 µM
9,CCN(c1ccccc1)S(=O)(=O)c1ccc(N)c(OC)c1,1.82 µM
10,COc1ccc(NC(=O)c2cc3c(=O)n(C)c4ccccc4c3n2C)cc1OC,4 µM
11,CCCCCC(O)C=CC1C(O)CC(O)C1CC=CCCCC(=O)O (stereo not drawn),0.00382 µM
12,COc1cccc(C2=CC(c3cccs3)n3nnnc3N2)c1 (stereo not drawn),0.951 µM
13,CCCNC(=O)c1cc(-c2ccco2)on1,0.903 µM
14,COc1cccc(/C=C2\SC(=S)N(CCC(=O)N3CCCCC3)C2=O)c1,4.37 µM
15,CC(C)(C)S(=O)N1Cc2cc(C(=O)NCC(F)(F)F)nc(-c3cccc(-c4cccc(F)c4)c3)c2[C@@H]1CCO (stereo partly drawn),1.78 µM
16,O=c1cc(-c2ccc(O)cc2)oc2cc(O)c(C3OC(CO)C(O)C(O)C3O)c(O)c12 (stereo not drawn),0.0151 µM
17,CCOC(=O)[C@H]1[C@H]2COc3ccc(Br)cc3[C@@H]2N2C(=O)c3cc(OC)c(OC)cc3NC(=O)[C@@]12C,3.99 µM
18,CCN1C(=O)c2cccc3c(S(=O)(=O)Nc4ccccn4)ccc1c23,1.86 µM
19,CC(=O)NC(c1cccc(F)c1)c1nc(-c2ccccc2C)cs1 (stereo not drawn),0.263 µM
20,C[C@@]12C(=O)Nc3cc(Cl)ccc3C(=O)N1[C@H]1c3cc(Cl)ccc3OC[C@@H]1[C@@H]2c1ccccc1,1.44 µM
21,Cc1cnc(C(=O)Nc2ccc(OC(F)(F)F)cc2)cn1,3.18 µM
22,COc1ccc(/C=C/C(=O)Oc2cccc(/C=N/NC(=O)COc3c(C)cccc3C)c2)cc1,3.25 µM

row,SMILES,AC35
1,Cc1ccc(-c2cc(C(=O)NCC(c3ccccc3)N(C)C)c3ccccc3n2)o1 (stereo not drawn),3.3 µM
2,CC(=O)Nc1ccc(CC(=O)NCCC(c2ccccc2)c2ccccc2)cc1,7.67 µM
3,COc1ccc(CC(=O)N(Cc2ccccc2)c2ccc(C)cc2)cc1OC,1.04 µM
4,Cn1c(=O)[nH]c(=O)c2c1nc(N(CCO)Cc1ccccc1)n2CCCc1ccccc1,0.547 µM
5,COCCNC(=O)c1cc(-c2cccs2)on1,1.02 µM
6,CC1(C)Cc2nc3sc4c(SCC(=O)NCc5ccccc5)ncnc4c3cc2CO1,0.0157 µM
7,Cc1cc2nnc(SCC(=O)NCc3ccco3)n2c2ccccc12,16.6 µM
8,CCN(CC)CCNC(=O)c1cc2c(=O)n(C)c3ccccc3c2s1,3.55 µM
9,O=C(Nc1cccc(-c2cn3ccccc3n2)c1)c1cccc(Cl)c1,2.15 µM
10,COc1cc(/C=C(/C(=O)c2cccs2)c2nc3ccccc3[nH]2)cc(OC)c1O,0.0195 µM
11,Nc1nc(-c2ccccn2)nc(N)c1Cc1ccc(Cl)cc1Cl,1.48 µM
12,COc1ccc(Nc2nc(N(C)c3ccccc3)nc(N)c2[N+](=O)[O-])cc1,0.171 µM
13,CCC(C)C(=O)OC1CCC=C2C=CC(C)C(CCC3CC(O)CC(=O)O3)C21 (stereo not drawn),0.499 µM
14,CC(C)c1ccc(/C=N/NC(=O)c2ccccc2Cl)cc1,0.247 µM
15,CCN(CC)S(=O)(=O)c1cccc(C(=O)OCC(=O)Nc2ccc3c(c2)c2ccccc2n3CC)c1,1.39 µM
16,CCCCNC(=O)c1cc(-c2ccc(F)cc2)on1,0.806 µM
17,CS(=O)(=O)c1cccc(C(=O)Nc2ccc(-c3nc4ccccc4[nH]3)cc2)c1,3.75 µM
18,COc1ccc2c(c1)C(=O)N1[C@H]3c4cc(Cl)ccc4OC[C@@H]3[C@H](c3ccccc3)[C@]1(C)C(=O)N2,0.981 µM
19,CN1/C(=C/C=C(/C#N)C(N)=O)C(C)(C)c2ccccc21,0.00724 µM
20,O=C(COC(=O)c1cccc(Br)c1)Nc1cccc2c1C(=O)c1ccccc1C2=O,1.15 µM
21,O=C(CCN1C(=O)/C(=C\c2ccccc2)SC1=S)N1CCCCC1,6.19 µM
